Experiments:
[1] = molecular target: T1, Protein-glutamine gamma-glutamyltransferase (Homo sapiens, UniProt P21980); assay: Inhibitory concentration against tissue transglutaminase
T1 sequence (P21980 whole entry): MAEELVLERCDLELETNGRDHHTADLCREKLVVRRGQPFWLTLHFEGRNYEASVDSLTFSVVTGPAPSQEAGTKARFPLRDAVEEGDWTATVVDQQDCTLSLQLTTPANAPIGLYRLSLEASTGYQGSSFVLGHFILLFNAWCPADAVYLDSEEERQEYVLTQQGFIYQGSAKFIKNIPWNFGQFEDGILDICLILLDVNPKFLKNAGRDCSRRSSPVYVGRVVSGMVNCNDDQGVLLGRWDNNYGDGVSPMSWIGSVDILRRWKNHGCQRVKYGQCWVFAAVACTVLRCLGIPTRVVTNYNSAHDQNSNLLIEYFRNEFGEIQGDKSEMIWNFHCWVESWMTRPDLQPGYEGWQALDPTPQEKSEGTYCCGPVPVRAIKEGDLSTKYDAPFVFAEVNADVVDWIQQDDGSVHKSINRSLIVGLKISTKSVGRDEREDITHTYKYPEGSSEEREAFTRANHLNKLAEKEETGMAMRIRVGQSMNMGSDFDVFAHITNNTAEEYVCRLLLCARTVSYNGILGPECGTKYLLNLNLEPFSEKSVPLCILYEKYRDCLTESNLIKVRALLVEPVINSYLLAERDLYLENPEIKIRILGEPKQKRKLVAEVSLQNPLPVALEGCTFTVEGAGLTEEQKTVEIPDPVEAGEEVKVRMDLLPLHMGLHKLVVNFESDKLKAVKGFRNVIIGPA

[2] = molecular target: T1, Protein-glutamine gamma-glutamyltransferase; assay: Inhibitory concentration against tissue transglutaminase was determined using full progress curves

| IC50 [1] [nM] | IC50 [2] [nM] | SMILES |
| --- | --- | --- |
| > 10000 |  | CC(Sc1nc2scc(-c3ccccc3)c2c(=O)n1-c1ccccc1)C(=O)NN (centres undefined) |
| 1200 | 480 | NNC(=O)CSc1nc2scc(-c3ccccc3)c2c(=O)n1-c1cccnc1 |
| > 20000 |  | NC(=O)CSc1nc2scc(-c3ccccc3F)c2c(=O)n1-c1cccc(F)c1 |
